In PMC2662380 (Journal of medicinal chemistry, 2008):

Tests used:
[1] = test system: MDA-MB-231 breast cancer cell line; assay: induction of cell death, trypan blue exclusion assay; format: cell-based, human; details: for induction of cell death (in words): different concentrations, 48 hours
caspase-8, PARP = assay: Western blot analysis of caspase-8 processing and PARP cleavage; details: MDA-MB-231, within 24 h

## CN[C@@H](C)C(=O)N[C@H]1Cc2ccccc2[C@H]2CC[C@@H](C(=O)NC(c3ccccc3)c3ccccc3)N2C1=O [Compound 5]
[1]
  induction of cell death (in words): capable of inducing cell death in a dose-dependent manner

## CN[C@@H](C)C(=O)N[C@H]1Cc2ccccc2[C@H]2CC[C@@H](C(=O)N[C@@H]3CCCc4ccccc43)N2C1=O [Compound 6]
[1]
  concentration that effectively induces cell death: 100 nM
  induction of cell death (in words): most effective
caspase-8, PARP
  lowest concentration inducing processing of caspase-8 and cleavage of PARP: 100 nM

## CN[C@@H](C)C(=O)N[C@H]1Cc2ccccc2[C@H]2CCC[C@@H](C(=O)NC(c3ccccc3)c3ccccc3)N2C1=O [Compound 8]
[1]
  induction of cell death (in words): least effective
